From ChEMBL document CHEMBL1157653, “Gentisides A and B, two new neuritogenic compounds from the traditional Chinese medicine Gentiana rigescens Franch” (Bioorg Med Chem, 2010) come the findings set out here.

The subject of series [1] is PC-12. Description: Induction of neuritogenic activity in rat PC12 cells assessed as long neurite outgrowths at 1 to 30 uM after 48 hrs. Type of series: functional, cell-based.
For series [2], the system named is PC-12. Description: Induction of neuritogenic activity in rat PC12 cells assessed as appearance of long multipolar and bipolar neurite outgrowths at 30 uM after 48 hrs by phase contrast microscopy. The series is classed as functional, cell-based.
The test system of series [3] is PC-12. The series can be described thus: Cytotoxicity against rat PC12 cells at 100 uM after 48 hrs. Type of series: cell-based. Particulars: pc-12, 48 h.
Series [4] concerns PC-12. The series can be described thus: Induction of neuritogenic activity in rat PC12 cells assessed as long neurite outgrowths at 100 uM after 48 hrs. Type of series: functional, cell-based.
For series [5], the system named is PC-12. The series can be described thus: Cytotoxicity against rat PC12 cells at 1 to 30 uM after 48 hrs. Particulars: pc-12, 48 h. Type of series: cell-based.
Series [6] deals with PC-12. The series can be described thus: Potentiation of NGF-induced neuritogenic activity in rat PC12 cells assessed as neurite outgrowths at 1 to 30 uM after 48 hrs. Type of series: functional, cell-based.
The test system of series [7] is PC-12. Description: Induction of neuritogenic activity in rat PC12 cells assessed as long neurite outgrowths after 48 hrs. The series is classed as functional, cell-based.
In series [8] the test system is PC-12. Description: Induction of neuritogenic activity in rat PC12 cells assessed as long neurite outgrowths at 30 uM after 48 hrs. Type of series: functional.

Activity calls are given as the source filed them. The calls are words filed in the database; no cut-off is given here.

As for `O=C(O)c1cccc(O)c1O`, in the series with PC-12 [1], the outcome was inactive.
Regarding `CC(C)CCCCCCCCCCCCCCCCCCCOC(=O)c1cccc(O)c1O` [GENTISIDE A], the outcome in the series on PC-12 [2] and with PC-12 [4] was Active. Further, the Activity entry was “Toxic” in the series on PC-12 [3], “Non-toxic” in the series on PC-12 [5], “Dose-dependent effect” with PC-12 [7] and 82% with PC-12 [8]. The outcome in the series on PC-12 [6] was inactive.
On to `CC[C@H](C)CCCCCCCCCCCCCCCCCCCOC(=O)c1cccc(O)c1O` [GENTISIDE B], for which the outcome in the series with PC-12 [2] and in the series with PC-12 [4] was Active. Further, the Activity entry in the series with PC-12 [3] was “Toxic”; in the series with PC-12 [5] it was “Non-toxic”; with PC-12 [7] it was “Dose-dependent effect”; in the series with PC-12 [8], 87%. Besides, the result in the series with PC-12 [6] was inactive.
